# Data: ChEMBL document CHEMBL1201862, “PubChem BioAssay data set” (2004)
# Active and inactive are the calls of the source.
# How the values were obtained:
# Cytochrome P450 2C19 = Cytochrome P450 2C19 (Homo sapiens, UniProt P33261); experiment: Cytochrome panel assay with activity outcomes. Panel member name: p450-cyp2c19 Compounds with AC50 equal or less than 10 uM are considered active; assay type: functional; settings: read-out: AC50
# Cytochrome P450 2D6 = Cytochrome P450 2D6 (Homo sapiens, UniProt P10635);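 note: CYP2D6 member of a cytochrome P450 panel assay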
# Chain of Cytochrome P450 2D6 (P10635 whole entry): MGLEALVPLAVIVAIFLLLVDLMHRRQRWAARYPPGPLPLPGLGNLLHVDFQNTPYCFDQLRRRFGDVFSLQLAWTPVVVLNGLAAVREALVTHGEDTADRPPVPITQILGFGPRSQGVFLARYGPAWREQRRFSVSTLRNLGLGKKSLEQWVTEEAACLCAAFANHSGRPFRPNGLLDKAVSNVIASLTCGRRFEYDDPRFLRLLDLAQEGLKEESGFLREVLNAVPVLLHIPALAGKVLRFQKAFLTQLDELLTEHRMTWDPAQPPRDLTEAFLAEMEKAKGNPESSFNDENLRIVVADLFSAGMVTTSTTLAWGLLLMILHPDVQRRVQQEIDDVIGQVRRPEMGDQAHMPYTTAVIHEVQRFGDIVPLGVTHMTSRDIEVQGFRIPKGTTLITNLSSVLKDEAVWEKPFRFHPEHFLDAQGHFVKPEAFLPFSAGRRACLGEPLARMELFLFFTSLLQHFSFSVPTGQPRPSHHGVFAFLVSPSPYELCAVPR
# Cytochrome P450 3A4 = Cytochrome P450 3A4 (Homo sapiens, UniProt P08684);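 note: CYP3A4 tested as one member of a cytochrome P450 panel screen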
# Chain of Cytochrome P450 3A4 (P08684 whole entry): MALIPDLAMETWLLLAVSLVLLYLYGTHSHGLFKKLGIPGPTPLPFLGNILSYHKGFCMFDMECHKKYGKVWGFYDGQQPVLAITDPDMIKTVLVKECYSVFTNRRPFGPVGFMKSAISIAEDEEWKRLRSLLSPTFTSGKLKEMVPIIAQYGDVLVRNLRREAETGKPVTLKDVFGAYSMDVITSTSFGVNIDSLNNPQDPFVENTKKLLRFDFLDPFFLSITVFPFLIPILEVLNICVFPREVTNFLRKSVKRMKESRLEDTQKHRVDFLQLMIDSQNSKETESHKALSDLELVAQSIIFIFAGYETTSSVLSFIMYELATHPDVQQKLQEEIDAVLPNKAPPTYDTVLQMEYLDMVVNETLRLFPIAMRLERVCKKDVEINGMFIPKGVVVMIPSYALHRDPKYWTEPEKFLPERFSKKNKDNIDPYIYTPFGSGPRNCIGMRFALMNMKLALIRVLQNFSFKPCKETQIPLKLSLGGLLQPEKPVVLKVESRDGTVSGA
# [1] = NIH-3T3 fibroblast cytotoxicity, dose response, cytotoxicity control, cell-based, fluorescence, Alamar Blue, secondary assay (AID 2327); assay type: functional;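 note: NIH-3T3 mouse fibroblasts cultured with fluconazole at 8 µg/mL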
# [2] = fluconazole-exposed Candida albicans growth modulators – fluorescence, retest, confirmation (AID 2467); assay type: functional, cell-based
# [3] = target: T1, Serine/threonine-protein phosphatase (Candida dubliniensis (strain CD36 / CBS 7987 / NCPF 3949 / NRRLY-17841) (Yeast), UniProt B9W6M3); experiment: blockers of CaCl2-induced CDRE-lacZ signaling – S. cerevisiae, luminescence, secondary, dose response (AID 2388); assay type: functional, cell-based;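 note: yeast reporter cells carrying a calcineurin-responsive lacZ construct stimulated with calcium chloride; luminescent beta-galactosidase reporter signal in whole cells rather than isolated phosphatase activity; potency for inhibition where a drop in reporter signal means calcineurin blockade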
# T1 sequence (B9W6M3 whole entry): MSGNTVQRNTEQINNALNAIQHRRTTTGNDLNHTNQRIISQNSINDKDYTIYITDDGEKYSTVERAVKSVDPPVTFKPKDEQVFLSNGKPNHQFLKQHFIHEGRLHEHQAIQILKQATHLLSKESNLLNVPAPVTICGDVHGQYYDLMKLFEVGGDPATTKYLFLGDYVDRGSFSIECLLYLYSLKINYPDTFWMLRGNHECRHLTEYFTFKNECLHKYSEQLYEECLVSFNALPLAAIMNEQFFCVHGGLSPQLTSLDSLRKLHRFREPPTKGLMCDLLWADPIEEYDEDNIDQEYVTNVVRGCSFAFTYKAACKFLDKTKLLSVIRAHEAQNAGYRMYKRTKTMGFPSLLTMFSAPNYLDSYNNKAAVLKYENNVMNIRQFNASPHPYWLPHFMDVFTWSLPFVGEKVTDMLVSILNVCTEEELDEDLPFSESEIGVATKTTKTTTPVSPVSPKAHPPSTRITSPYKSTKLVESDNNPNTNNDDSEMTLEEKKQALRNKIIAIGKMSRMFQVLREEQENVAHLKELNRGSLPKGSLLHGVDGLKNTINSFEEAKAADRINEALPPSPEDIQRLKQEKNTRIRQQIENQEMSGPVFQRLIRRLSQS
# [4] = target: T1, Serine/threonine-protein phosphatase; experiment: Fluorescence Cell-Based Secondary Assay to Identify Inhibitors of Calcineurin. [Related pubchem assays (depositor defined):AID1979, AID2007]; assay type: functional
# CAAX prenyl protease 2 [5] = target: T2, CAAX prenyl protease 2 (Homo sapiens, UniProt Q9Y256); experiment: inhibition of Ras-converting CAAX protease Rce1 – biochemical, yeast membranes, quenched-peptide fluorescence, cherry-pick, dose response (AID 588849)
# T2 sequence (Q9Y256 whole entry): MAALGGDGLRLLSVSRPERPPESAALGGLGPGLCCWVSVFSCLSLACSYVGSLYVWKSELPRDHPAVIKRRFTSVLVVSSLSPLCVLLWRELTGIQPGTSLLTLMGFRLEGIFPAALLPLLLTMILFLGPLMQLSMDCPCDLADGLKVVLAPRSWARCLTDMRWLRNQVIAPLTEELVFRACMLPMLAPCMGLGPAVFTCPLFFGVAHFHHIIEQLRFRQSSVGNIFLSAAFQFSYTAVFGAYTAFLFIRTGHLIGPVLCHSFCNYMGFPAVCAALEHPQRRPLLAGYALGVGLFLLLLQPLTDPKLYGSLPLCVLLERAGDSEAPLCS
# [6] = target: ATP-dependent molecular chaperone HSP82 (Candida albicans (strain WO-1) (Yeast), UniProt C4YTQ8); experiment: steroid-induced GRE reporter decrease in yeast – S. cerevisiae, luminescence, Hsp90 inhibitor project, dose response (AID 2400); assay type: functional, cell-based;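 note: beta-galactosidase luminescence from glucocorticoid response element reporter as proxy for Hsp90 function; inhibitor potency where signal loss means Hsp90 inhibition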
# Chain of ATP-dependent molecular chaperone HSP82 (C4YTQ8 whole entry): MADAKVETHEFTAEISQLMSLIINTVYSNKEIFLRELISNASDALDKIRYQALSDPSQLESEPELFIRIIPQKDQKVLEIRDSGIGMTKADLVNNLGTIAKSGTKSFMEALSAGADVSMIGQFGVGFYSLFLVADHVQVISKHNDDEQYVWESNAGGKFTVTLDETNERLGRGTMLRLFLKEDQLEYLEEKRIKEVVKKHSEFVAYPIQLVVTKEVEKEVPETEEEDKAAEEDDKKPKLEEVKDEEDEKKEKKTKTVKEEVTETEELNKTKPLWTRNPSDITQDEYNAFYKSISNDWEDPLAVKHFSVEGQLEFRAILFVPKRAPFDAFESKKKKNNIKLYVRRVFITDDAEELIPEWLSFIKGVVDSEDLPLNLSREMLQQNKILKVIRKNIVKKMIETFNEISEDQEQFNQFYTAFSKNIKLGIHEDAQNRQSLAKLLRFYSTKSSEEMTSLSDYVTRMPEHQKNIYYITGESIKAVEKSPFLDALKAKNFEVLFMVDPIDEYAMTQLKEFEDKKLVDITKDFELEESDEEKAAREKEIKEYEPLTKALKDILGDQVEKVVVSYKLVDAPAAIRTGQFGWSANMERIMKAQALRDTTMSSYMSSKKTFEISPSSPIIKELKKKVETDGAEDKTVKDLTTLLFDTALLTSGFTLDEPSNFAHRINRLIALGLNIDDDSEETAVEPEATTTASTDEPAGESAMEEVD
# Protein skinhead-1 = target: T3, Protein skinhead-1 (Caenorhabditis elegans, UniProt P34707); assay type: functional
# T3 sequence (P34707 whole entry): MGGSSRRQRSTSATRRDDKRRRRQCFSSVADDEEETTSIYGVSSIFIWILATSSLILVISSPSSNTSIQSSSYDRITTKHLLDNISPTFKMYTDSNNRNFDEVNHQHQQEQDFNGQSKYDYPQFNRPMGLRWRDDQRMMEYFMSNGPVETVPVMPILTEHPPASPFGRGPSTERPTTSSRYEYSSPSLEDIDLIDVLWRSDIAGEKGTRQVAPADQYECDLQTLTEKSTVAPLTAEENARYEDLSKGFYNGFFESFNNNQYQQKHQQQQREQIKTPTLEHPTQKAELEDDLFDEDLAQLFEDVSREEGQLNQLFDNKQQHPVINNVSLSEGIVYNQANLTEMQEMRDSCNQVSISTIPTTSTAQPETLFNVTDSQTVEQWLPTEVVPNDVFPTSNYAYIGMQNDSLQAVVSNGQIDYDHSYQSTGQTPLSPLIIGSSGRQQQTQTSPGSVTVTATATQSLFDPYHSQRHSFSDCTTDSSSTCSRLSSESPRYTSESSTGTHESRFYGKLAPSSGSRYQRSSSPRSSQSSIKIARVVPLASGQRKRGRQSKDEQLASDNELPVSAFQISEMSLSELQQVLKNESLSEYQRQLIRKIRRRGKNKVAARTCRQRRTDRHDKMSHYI
# [7] = target: UDP-galactopyranose mutase (Mycobacterium tuberculosis, UniProt P9WIQ1); experiment: Inhibitors of Mycobacterium tuberculosis UDP-galactopyranose mutase (UGM) enzyme Measured in Biochemical System Using Plate Reader - 2105-02_Inhibitor_Dose_CherryPick_Activity. [Related pubchem assays (depositor defined):AID504439]
# Chain of UDP-galactopyranose mutase (P9WIQ1 whole entry): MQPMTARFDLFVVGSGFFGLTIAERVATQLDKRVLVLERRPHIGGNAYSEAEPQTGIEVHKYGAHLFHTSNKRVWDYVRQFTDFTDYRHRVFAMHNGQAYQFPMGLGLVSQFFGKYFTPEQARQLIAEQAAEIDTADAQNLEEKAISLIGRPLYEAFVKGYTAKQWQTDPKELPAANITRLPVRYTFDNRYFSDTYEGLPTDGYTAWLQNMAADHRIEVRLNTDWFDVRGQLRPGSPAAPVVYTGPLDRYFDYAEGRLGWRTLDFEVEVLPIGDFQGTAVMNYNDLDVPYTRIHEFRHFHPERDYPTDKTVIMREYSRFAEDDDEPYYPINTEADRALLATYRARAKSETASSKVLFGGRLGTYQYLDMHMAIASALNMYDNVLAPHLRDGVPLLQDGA
# HEK293 [8] = experiment: inhibition of NOD1-driven NF-kB reporter – cell-based, luminescence, uHTS, primary screen (AID 1578); assay type: functional; settings: Homo sapiens
# [9] = tested on: Streptococcus sp. 'group A'; experiment: Streptococcus pyogenes SK(-)GAS viability under kanamycin – luminescence, BacTiterGlo, confirmation, counter-screen for streptokinase expression inhibitor project, dose response (AID 1900); assay type: functional, organism-based
# HEK293 [10] = experiment: cells; assay type: functional, cell-based; settings: Homo sapiens
# Streptokinase A = target: T4, Streptokinase A (Streptococcus pyogenes serotype M1, UniProt P10520); experiment: viability-normalized secreted streptokinase activity reduction – plasminogen activation absorbance, OD405, dose response (AID 1914); assay type: functional, Streptococcus pyogenes M1 GAS;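 note: secreted streptokinase activity via plasminogen activation per viability signal from cell pellet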
# T4 sequence (P10520 whole entry): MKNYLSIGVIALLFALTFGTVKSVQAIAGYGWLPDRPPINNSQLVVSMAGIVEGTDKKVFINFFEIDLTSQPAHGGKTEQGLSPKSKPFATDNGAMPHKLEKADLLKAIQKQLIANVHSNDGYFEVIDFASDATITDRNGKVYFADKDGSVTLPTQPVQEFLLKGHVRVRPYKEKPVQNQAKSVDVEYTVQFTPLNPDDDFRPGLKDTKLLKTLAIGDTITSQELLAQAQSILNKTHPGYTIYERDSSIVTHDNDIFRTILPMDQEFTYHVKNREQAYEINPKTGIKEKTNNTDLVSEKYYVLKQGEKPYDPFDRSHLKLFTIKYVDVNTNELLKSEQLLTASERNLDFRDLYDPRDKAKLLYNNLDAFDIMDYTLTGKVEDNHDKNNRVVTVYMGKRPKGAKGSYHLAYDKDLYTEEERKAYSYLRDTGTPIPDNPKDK
# HEK293 [11] = experiment: cells; assay type: functional, cell-based; settings: Homo sapiens; remark: listed apart in the source
# [12] = target: Nucleotide-binding oligomerization domain-containing protein 2 (Homo sapiens, UniProt Q9HC29); experiment: inhibition of NOD2-driven NF-kB reporter – cell-based, luminescence, uHTS, HEK293 (AID 1566); assay type: functional
# Chain of Nucleotide-binding oligomerization domain-containing protein 2 (Q9HC29 whole entry, the tested form may be a part): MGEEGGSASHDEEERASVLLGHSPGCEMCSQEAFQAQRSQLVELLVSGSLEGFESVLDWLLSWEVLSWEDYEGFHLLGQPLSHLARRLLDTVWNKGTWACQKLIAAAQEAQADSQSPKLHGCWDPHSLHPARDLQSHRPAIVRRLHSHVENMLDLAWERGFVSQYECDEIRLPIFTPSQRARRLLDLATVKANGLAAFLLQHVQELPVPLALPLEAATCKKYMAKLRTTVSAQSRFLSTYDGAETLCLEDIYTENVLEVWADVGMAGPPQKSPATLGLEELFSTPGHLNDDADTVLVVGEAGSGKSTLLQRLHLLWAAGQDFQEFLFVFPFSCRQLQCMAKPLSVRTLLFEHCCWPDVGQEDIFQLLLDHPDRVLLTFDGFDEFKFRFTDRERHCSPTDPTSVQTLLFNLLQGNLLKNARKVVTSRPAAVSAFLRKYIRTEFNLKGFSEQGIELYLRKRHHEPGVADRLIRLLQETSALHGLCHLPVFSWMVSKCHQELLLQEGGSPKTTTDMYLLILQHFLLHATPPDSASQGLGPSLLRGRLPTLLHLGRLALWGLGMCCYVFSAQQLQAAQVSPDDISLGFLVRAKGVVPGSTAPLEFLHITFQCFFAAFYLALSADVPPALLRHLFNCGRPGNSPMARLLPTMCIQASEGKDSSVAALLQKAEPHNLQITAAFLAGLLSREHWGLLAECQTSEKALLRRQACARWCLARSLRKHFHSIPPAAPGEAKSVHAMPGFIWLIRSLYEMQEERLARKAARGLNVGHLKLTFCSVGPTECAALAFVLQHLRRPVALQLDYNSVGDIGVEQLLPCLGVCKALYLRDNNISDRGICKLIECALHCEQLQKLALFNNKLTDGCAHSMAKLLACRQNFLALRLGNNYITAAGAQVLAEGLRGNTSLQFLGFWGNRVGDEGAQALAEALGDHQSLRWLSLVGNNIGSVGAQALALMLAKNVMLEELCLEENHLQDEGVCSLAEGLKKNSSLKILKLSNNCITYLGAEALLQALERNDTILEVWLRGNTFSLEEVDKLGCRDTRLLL
# HEK293 [13] = experiment: NOD2 signaling inhibitors in MDP-stimulated cells, cell-based, uHTS, luminescence (AID 2001); assay type: functional; settings: Homo sapiens
# HEK293 [14] = experiment: cells; assay type: functional, cell-based; settings: Homo sapiens; remark: listed apart in the source
# Streptococcus = experiment: GAS UMAA2166 growth inhibition – luminescence, BacTiterGlo, counter-screen for streptokinase expression inhibitor project, dose response (AID 1915); assay type: functional, organism-based;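 note: potency for reduction of bacterial viability or growth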
# [15] = target: T5, Aryl hydrocarbon receptor (Homo sapiens, UniProt P35869); experiment: Luminescence-based cell-based high throughput dose response assay for activators of the Aryl Hydrocarbon Receptor (AHR). [Related pubchem assays: 2796 (Primary screen (AHR activators in singlicate)), 2845 (Confirmation screen (AHR activators in triplicate)), 434939 (Counterscreen (PXR activators in triplicate)), 2804 (Summary (AHR activators))]; assay type: ADME
# T5 sequence (P35869 whole entry): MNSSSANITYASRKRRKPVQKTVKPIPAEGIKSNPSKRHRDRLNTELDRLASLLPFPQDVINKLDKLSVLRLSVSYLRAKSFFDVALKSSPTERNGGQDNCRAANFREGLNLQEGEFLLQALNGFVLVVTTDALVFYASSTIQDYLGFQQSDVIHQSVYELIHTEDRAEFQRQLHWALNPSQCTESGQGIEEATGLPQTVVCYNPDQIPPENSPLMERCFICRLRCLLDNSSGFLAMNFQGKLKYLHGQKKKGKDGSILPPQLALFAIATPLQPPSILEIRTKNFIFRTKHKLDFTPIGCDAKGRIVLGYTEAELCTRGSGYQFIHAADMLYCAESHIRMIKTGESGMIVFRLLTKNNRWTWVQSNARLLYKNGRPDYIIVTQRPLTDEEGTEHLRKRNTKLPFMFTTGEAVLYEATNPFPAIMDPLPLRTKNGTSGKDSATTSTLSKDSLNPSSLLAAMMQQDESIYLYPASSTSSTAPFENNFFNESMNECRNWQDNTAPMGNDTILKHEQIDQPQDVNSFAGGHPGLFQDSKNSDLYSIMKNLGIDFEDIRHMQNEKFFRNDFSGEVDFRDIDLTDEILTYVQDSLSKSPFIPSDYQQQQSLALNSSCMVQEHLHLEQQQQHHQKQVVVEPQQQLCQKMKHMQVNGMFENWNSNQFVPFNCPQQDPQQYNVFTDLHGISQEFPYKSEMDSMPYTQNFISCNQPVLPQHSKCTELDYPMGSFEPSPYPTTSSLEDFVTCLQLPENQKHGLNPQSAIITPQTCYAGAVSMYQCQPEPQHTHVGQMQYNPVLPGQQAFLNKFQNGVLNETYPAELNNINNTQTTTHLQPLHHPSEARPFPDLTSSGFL
# CAAX prenyl protease 2 [16] = target: T6, CAAX prenyl protease 2 (Saccharomyces cerevisiae S288c, UniProt Q03530); assay type: biochemical
# T6 sequence (Q03530 whole entry): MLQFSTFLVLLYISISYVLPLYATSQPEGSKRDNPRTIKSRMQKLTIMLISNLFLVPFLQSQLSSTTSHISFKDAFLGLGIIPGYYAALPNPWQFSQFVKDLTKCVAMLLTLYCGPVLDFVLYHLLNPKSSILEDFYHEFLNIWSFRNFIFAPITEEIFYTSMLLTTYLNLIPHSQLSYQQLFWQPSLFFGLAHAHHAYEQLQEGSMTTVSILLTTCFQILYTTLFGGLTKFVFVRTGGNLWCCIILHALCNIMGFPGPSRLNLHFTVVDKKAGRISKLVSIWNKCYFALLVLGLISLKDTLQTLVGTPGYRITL
# CAAX prenyl protease 1 = CAAX prenyl protease 1 (Saccharomyces cerevisiae S288c, UniProt P47154); experiment: yeast CAAX protease Ste24 inhibition – biochemical, S. cerevisiae, plate reader, cherry-pick, dose response (AID 488815)
# Chain of CAAX prenyl protease 1 (P47154 whole entry): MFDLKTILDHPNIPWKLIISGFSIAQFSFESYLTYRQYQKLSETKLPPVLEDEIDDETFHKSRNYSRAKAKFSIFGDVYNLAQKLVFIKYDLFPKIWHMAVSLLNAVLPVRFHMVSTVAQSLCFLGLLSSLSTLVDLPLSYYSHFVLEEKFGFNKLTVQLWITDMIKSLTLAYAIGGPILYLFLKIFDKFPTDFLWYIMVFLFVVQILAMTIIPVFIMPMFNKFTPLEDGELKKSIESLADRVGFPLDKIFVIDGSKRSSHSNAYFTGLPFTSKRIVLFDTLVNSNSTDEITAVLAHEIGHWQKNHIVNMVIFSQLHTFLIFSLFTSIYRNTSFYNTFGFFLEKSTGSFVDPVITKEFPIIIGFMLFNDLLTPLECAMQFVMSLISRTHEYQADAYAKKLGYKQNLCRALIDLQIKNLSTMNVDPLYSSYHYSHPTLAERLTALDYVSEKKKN
# [17] = target: DNA repair and recombination protein RAD54-like (Homo sapiens, UniProt Q92698); experiment: RAD54 Holliday junction migration blockers – biochemical, fluorescence, cherry-picked samples, dose series, confirmation (AID 651657); assay type: functional
# Chain of DNA repair and recombination protein RAD54-like (Q92698 whole entry): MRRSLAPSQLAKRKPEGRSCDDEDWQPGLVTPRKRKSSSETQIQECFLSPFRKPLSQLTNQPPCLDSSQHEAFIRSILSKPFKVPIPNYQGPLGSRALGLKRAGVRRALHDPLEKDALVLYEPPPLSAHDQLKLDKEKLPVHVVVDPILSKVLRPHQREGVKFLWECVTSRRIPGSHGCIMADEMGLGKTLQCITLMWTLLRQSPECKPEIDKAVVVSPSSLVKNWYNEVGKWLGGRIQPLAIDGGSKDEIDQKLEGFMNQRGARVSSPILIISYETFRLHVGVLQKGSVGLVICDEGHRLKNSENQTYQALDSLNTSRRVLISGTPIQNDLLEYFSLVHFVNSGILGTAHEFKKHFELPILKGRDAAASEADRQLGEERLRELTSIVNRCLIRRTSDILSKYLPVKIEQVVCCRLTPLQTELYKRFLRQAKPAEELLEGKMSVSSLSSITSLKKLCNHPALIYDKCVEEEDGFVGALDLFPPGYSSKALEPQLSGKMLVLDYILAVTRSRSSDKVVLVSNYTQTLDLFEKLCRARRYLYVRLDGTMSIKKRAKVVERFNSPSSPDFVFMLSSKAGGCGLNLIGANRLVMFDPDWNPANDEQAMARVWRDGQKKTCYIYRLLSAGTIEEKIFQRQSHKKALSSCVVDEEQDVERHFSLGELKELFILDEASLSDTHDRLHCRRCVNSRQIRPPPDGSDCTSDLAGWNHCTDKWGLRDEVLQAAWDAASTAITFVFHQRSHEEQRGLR
# [18] = restored growth of temperature-sensitive Burl-1 yeast – whole organism, S. cerevisiae, Burl-1 ts mutant, luminescence, counter-screen for SUMOylation pathway inhibitor project, dose response (AID 463199); assay type: functional
# Chain of Cytochrome P450 2C19 (P33261 whole entry): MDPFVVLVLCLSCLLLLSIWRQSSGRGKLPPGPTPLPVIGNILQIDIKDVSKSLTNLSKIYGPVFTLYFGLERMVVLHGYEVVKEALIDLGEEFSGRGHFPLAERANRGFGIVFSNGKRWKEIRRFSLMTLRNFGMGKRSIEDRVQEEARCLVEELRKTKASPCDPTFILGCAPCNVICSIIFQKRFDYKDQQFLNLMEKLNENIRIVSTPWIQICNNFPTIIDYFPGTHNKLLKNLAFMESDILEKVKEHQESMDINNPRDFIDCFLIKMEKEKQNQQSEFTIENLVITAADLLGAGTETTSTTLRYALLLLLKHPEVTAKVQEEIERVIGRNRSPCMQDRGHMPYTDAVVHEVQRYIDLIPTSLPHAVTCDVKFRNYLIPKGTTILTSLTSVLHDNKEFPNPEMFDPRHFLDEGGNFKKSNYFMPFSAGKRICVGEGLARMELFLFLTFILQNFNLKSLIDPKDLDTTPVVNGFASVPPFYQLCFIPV
smiles,measurement,setting,value
CCc1ccc(C(CC(=O)c2ccc(Cl)cc2)C(=O)O)cc1 (stereo unspecified),AC50,Cytochrome P450 2C19,0.00562 µM (inconclusive)
same,AC50,Cytochrome P450 2D6,inconclusive
same,AC50,Cytochrome P450 3A4,inconclusive
O=C(Nc1sc2c(c1C(=O)c1ccc(Cl)cc1)CCCC2)c1cccnc1,EC50,[1],> 160 µM (inactive)
same,EC50,[2],0.18 µM (active)
same,EC50,[3],> 180 µM (inactive)
same,EC50,[4],27.6 µM (inconclusive)
same,AC50,CAAX prenyl protease 2 [5],24.3 µM (active)
same,EC50,[6],28.2 µM (active)
same,IC50,Protein skinhead-1,> 100 µM (inactive)
Cc1cc(C)c(S(=O)(=O)Nc2ccc(C(=O)O)cc2)cc1S(=O)(=O)Nc1ccc(C(=O)O)cc1,AC50,[7],423 µM (active)
CCCCCCc1cc2cc(C(=O)OCC)c(=O)oc2cc1O,EC50,HEK293 [8],5.81 µM (active)
same,EC50,[9],10.8 µM (active)
same,IC50,HEK293 [10],7.71 µM (active)
same,EC50,Streptokinase A,12.8 µM (active)
same,IC50,HEK293 [11],15.8 µM (active)
same,EC50,[12],12.6 µM (active)
same,IC50,HEK293 [13],6.52 µM (inactive)
same,IC50,HEK293 [14],> 20 µM (inactive)
same,EC50,Streptococcus,> 150 µM (not active)
CN1CCN(CCCNC(=O)c2cc3c(-c4ccc(Cl)cc4)nn(C)c3s2)CC1,EC50,[15],0.483 µM (active)
same,AC50,CAAX prenyl protease 2 [16],7.05 µM (active)
same,AC50,CAAX prenyl protease 1,6.07 µM (active)
same,AC50,CAAX prenyl protease 2 [5],15.8 µM (active)
same,AC50,[17],33.6 µM (active)
OCCc1c[nH]c2cc(F)ccc12,AC50,[18],73.3 µM (active)
